Measurements taken from patent US4322496A, “Inhibition of lactate oxidase” (Eastman Kodak Company, priority 1980, dated 1982).

What was measured:
Type in all cases: biochemical
[1] = biological target: T1, lactate oxidase activity in partially purified DL-α-glycerophosphate oxidase (Enterococcus casseliflavus, UniProt C9AC47); test: Lactate/serum blank reaction, solution mode; conditions: 10 min, 37° C.; for Response to Normal Serum ΔA490: 20 μl normal serum
T1 sequence (C9AC47 1-367): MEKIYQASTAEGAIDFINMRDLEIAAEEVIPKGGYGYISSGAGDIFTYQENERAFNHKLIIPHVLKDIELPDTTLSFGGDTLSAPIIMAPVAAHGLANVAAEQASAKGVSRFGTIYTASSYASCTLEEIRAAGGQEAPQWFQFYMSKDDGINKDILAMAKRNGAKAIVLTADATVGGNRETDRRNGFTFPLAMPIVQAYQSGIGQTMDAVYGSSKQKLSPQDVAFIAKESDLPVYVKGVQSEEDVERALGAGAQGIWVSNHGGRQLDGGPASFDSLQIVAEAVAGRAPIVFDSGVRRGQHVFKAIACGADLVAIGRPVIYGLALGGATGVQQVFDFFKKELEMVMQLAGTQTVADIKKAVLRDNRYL
Experimental: Solution incubation mixtures contained in a total volume of 1.0 ml: 100 μmoles potassium phosphate buffer, pH 7.0, 0.12 mg 4-aminoantipyrene.HCl, 0.04 mg 1,7-dihydroxynaphthalene, 25 μg horseradish peroxidase (4.6 purpurogallin units), 0.36 units glycerol kinase, 4.6 units partially purified DL-α-glycerophosphate oxidase, and 10 mg Triton X-100. Reactions were initiated by addition of 20 μl of normal serum or 50 μl of 1 mM Dl-lactate, and after ten minutes at 37° C., the absorbance was measured at 490 nm. In each case, a reagent blank (all components except substrate) was subtracted to give the change in absorbance at 490 nm, ΔA490.

[2] = biological target: T2, beef meat lactate dehydrogenase (Bos taurus, UniProt P19858); test: LDH assay reaction mixture (pyruvate/NADH); conditions: acid 10 mM; pH 7.5
T2 construct: beef meat lactate dehydrogenase; from tissue; host or cells: beef meat (skeletal muscle)
Experimental: The effect of these acids on LO was evaluated by studying an LO assay reaction mixture having the composition described above. The effect of these acids on LDH was evaluated by studying an LDH assay reaction mixture which contained in a total volume of 1.0 ml: 50 μmoles potassium phosphate buffer (pH 7.5); 1 μmole sodium pyruvate; 0.13 μmole NADH; 0.02 μg beef meat lactate dehydrogenase (320 U/mg) and the acid at a concentration of 10 mM. In the absence of acid, the rate of reaction was assumed to be 100% and the percent inhibition of each reaction was calculated accordingly.

[3] = biological target: T3, lactate oxidase activity in partially purified L-α-glycerophosphate oxidase (Enterococcus casseliflavus, UniProt C9AC47); test: Lactate blank reaction in dry chemistry triglyceride test element; conditions: for Response to Lactate (DR): partially purified α-GPO, 10 μl DL-lactate 20 mg/dl, 540 nm, 7 min, 37° C.
T3 sequence (C9AC47 1-367): T1 sequence (C9AC47 1-367)
Experimental: In the examples, non-fibrous, multilayer, "dry chemistry" analytical elements for determination of serum triglycerides were formulated having the following structure and composition: […]
The enzymatic reagent layer composition of the above-noted "dry chemistry" analytical element contained deionized gelatin (5.4 g/m^2); gel hardener (32.4 mg/m^2); poly(methyl acrylate-co-2-acrylamido-2-methylpropanesulfonic acid-co-2-acetoacetoxyethyl methacrylate) having a monomer weight ratio of (88.8:4.7:6.5) as peroxidase stabilizer (5.4 g/m^2); 0.05 M potassium phosphate buffer, pH 7.0; Triton X-100 surfactant (389 mg/m^2); 2-(3,5-dimethoxy-4-hydroxyphenyl)4,5-bis(4-dimethylaminophenyl)imidazole as a leuco dye (405 mg/m^2 dispersed in 2,4-di-n-amylphenol (4.05 g/m^2); antioxidant (324 mg/m^2); MgCl (103 mg/m^2); adenosinetriphosphate (1.35 g/m^2); peroxidase (7020 U/m^2); glycerol kinase (324 U/m^2); and either purified or partially purified L-α-glycerophosphate oxidase (2840 U/m^2). When the partially purified L-α-glycerophosphate oxidase was used, glycolate was incorporated into that layer in the amounts noted below in Example 2.
A. Dry Chemistry Test Element Mode: Dry chemistry analytical elements for the determination of triglycerides were prepared with either the purified or partially purified L-α-GPO as described above. To each element, a 10 μl sample of DL-lactate (20 mg/dl) was applied and the reflection density of the element, DR, at 540 nm was measured through the element support after a seven-minute incubation at 37° C.

## O=C(O)CO [Glycolic Acid]
[1]; glycolate 1 mM
  Response to Normal Serum ΔA490: 0.006
  Response to 50 μM DL-Lactate ΔA490: 0.008
[1]; glycolate 2 mM
  Response to Normal Serum ΔA490: 0
  Response to 50 μM DL-Lactate ΔA490: 0
[1]; glycolate 3 mM
  Response to Normal Serum ΔA490: 0
  Response to 50 μM DL-Lactate ΔA490: 0
[2]
  inhibition at 10000 µM: 11%
[3]; 81 mg/m^2 glycolic acid
  lactate blank relative to control (purified α-GPO): 1.6 times control
  Response to Lactate (DR): 0.04
[3]; 405 mg/m^2 glycolic acid
  reaction with lactate compared with control (purified α-GPO): less than that observed with the purified L-α-glycerophosphate oxidase
  Response to Lactate (DR): 0.01
